Activity coefficient data for 24 compounds are collected here from the NIST ThermoML archive (doi:10.1016/j.jct.2013.02.004).

Numbers after ± are expanded uncertainties.

The nature of the first data set: activity coefficient (dimensionless); of the first substance listed, at infinite dilution; xn = mol fraction of the nth substance listed. The following applies: 308.15 K; 101 kPa; Liquid; Chromatography; x1 = 0.
`C1CCCCCCC1` [cyclooctane] + CCCCCC[n+]1ccc2ccccc2c1.N#C[S-]: the activity coefficient is 18.8 ± 1.3.
Consider `C1CCCC1` [cyclopentane] + CCCCCC[n+]1ccc2ccccc2c1.N#C[S-], for which the activity coefficient stood at 14.7 ± 1.
Same read-out and setting: to `CCCCCCCCCC` [decane] + CCCCCC[n+]1ccc2ccccc2c1.N#C[S-] belongs 105 ± 7.
As for `CCOCC` [diethyl ether] + CCCCCC[n+]1ccc2ccccc2c1.N#C[S-], the activity coefficient is 7.48 ± 0.51.
As to `CC(C)OC(C)C` [diisopropyl ether] + CCCCCC[n+]1ccc2ccccc2c1.N#C[S-], the activity coefficient stood at 23.7 ± 1.6.
For the compound `CCCOCCC` [dipropyl ether] + CCCCCC[n+]1ccc2ccccc2c1.N#C[S-], the activity coefficient turned out to be 15.9 ± 1.1.
For `CCCCCCC` [heptane] + CCCCCC[n+]1ccc2ccccc2c1.N#C[S-], the activity coefficient is 53 ± 3.6.
On the same count and under the same terms, to `C=CCCCC` [hex-1-ene] + CCCCCC[n+]1ccc2ccccc2c1.N#C[S-] belongs 20.2 ± 1.4; to `CCCCCC` [hexane] + CCCCCC[n+]1ccc2ccccc2c1.N#C[S-], 46.6 ± 3.2.
With `CC1CCCCC1` [methylcyclohexane] + CCCCCC[n+]1ccc2ccccc2c1.N#C[S-], the activity coefficient came out at 24.2 ± 1.7.
On the same count and under the same terms, to `CCCCCCCCC` [nonane] + CCCCCC[n+]1ccc2ccccc2c1.N#C[S-] belongs 79.7 ± 5.5; to `C=CCCCCCC` [oct-1-ene] + CCCCCC[n+]1ccc2ccccc2c1.N#C[S-], 30.2 ± 2.1.
As to `CCCCCCCC` [octane] + CCCCCC[n+]1ccc2ccccc2c1.N#C[S-], the activity coefficient is 64.1 ± 4.4.

Still in this data set, the particulars now being: 318.15 K; 101 kPa; Liquid; Chromatography; x1 = 0.
For the compound `C1CCCCCCC1` [cyclooctane] + CCCCCC[n+]1ccc2ccccc2c1.N#C[S-], the activity coefficient was determined as 17.5 ± 1.2.
For the compound `C1CCCC1` [cyclopentane] + CCCCCC[n+]1ccc2ccccc2c1.N#C[S-], the activity coefficient is 13.4 ± 0.9.
For the compound `CCCCCCCCCC` [decane] + CCCCCC[n+]1ccc2ccccc2c1.N#C[S-], the activity coefficient came out at 96.7 ± 6.6.
As to `CCOCC` [diethyl ether] + CCCCCC[n+]1ccc2ccccc2c1.N#C[S-], the activity coefficient amounted to 7.07 ± 0.48.
Still for that read-out and setting: next, `CC(C)OC(C)C` [diisopropyl ether] + CCCCCC[n+]1ccc2ccccc2c1.N#C[S-]: 21.2 ± 1.4; `CCCOCCC` [dipropyl ether] + CCCCCC[n+]1ccc2ccccc2c1.N#C[S-]: 14.9 ± 1.
Still for that read-out and setting: next, `CCCCCCC` [heptane] + CCCCCC[n+]1ccc2ccccc2c1.N#C[S-]: 47 ± 3.2; `C=CCCCC` [hex-1-ene] + CCCCCC[n+]1ccc2ccccc2c1.N#C[S-]: 18.2 ± 1.2.
For the compound `CCCCCC` [hexane] + CCCCCC[n+]1ccc2ccccc2c1.N#C[S-], the activity coefficient came to 40.5 ± 2.8.
Regarding `CC1CCCCC1` [methylcyclohexane] + CCCCCC[n+]1ccc2ccccc2c1.N#C[S-], the activity coefficient worked out at 21.5 ± 1.5.
As to `CCCCCCCCC` [nonane] + CCCCCC[n+]1ccc2ccccc2c1.N#C[S-], the activity coefficient came to 73.2 ± 5.
For `C=CCCCCCC` [oct-1-ene] + CCCCCC[n+]1ccc2ccccc2c1.N#C[S-], the activity coefficient came to 28.5 ± 1.9.
In the case of `CCCCCCCC` [octane] + CCCCCC[n+]1ccc2ccccc2c1.N#C[S-], the activity coefficient is 58 ± 4.

The data set is the same for the next values; noted with them: 328.15 K; 101 kPa; Liquid; Chromatography; x1 = 0.
Consider `C1CCCCCCC1` [cyclooctane] + CCCCCC[n+]1ccc2ccccc2c1.N#C[S-], for which the activity coefficient stood at 16.5 ± 1.1.
For `C1CCCC1` [cyclopentane] + CCCCCC[n+]1ccc2ccccc2c1.N#C[S-], the activity coefficient was determined as 12.3 ± 0.8.
`CCCCCCCCCC` [decane] + CCCCCC[n+]1ccc2ccccc2c1.N#C[S-]: the activity coefficient was determined as 90.4 ± 6.2.
Turning to `CCOCC` [diethyl ether] + CCCCCC[n+]1ccc2ccccc2c1.N#C[S-], the activity coefficient is 6.69 ± 0.46.
For `CC(C)OC(C)C` [diisopropyl ether] + CCCCCC[n+]1ccc2ccccc2c1.N#C[S-], the activity coefficient was 20.5 ± 1.4.
With `CCCOCCC` [dipropyl ether] + CCCCCC[n+]1ccc2ccccc2c1.N#C[S-], the activity coefficient was 14.2 ± 1.
The same measure, in the same setting: to `CCO` [ethanol] + CCCCCC[n+]1ccc2ccccc2c1.N#C[S-] belongs 0.6 ± 0.042; to `CCc1ccccc1` [ethylbenzene] + CCCCCC[n+]1ccc2ccccc2c1.N#C[S-], 3.08 ± 0.21; to `CCCCCCC` [heptane] + CCCCCC[n+]1ccc2ccccc2c1.N#C[S-], 42.5 ± 2.9.
On to `C=CCCCC` [hex-1-ene] + CCCCCC[n+]1ccc2ccccc2c1.N#C[S-], for which the activity coefficient was 16.9 ± 1.2.
Still for that read-out and setting: to `CCCCCC` [hexane] + CCCCCC[n+]1ccc2ccccc2c1.N#C[S-] belongs 35.6 ± 2.4; to `CO` [methanol] + CCCCCC[n+]1ccc2ccccc2c1.N#C[S-], 0.381 ± 0.033; to `CC1CCCCC1` [methylcyclohexane] + CCCCCC[n+]1ccc2ccccc2c1.N#C[S-], 19.8 ± 1.4.
Still for that read-out and setting: to `CCCCCCCCC` [nonane] + CCCCCC[n+]1ccc2ccccc2c1.N#C[S-] belongs 68.2 ± 4.7.
Still for that read-out and setting: to `C=CCCCCCC` [oct-1-ene] + CCCCCC[n+]1ccc2ccccc2c1.N#C[S-] belongs 27.1 ± 1.9; to `CCCCCCCC` [octane] + CCCCCC[n+]1ccc2ccccc2c1.N#C[S-], 53.3 ± 3.7.
Turning to `CCCC(C)=O` [pentan-2-one] + CCCCCC[n+]1ccc2ccccc2c1.N#C[S-], the activity coefficient came out at 2.1 ± 0.14.
The same measure, in the same setting: next, `CCC(=O)CC` [pentan-3-one] + CCCCCC[n+]1ccc2ccccc2c1.N#C[S-]: 2.1 ± 0.14; `CCCO` [propan-1-ol] + CCCCCC[n+]1ccc2ccccc2c1.N#C[S-]: 0.693 ± 0.047; `c1ccncc1` [pyridine] + CCCCCC[n+]1ccc2ccccc2c1.N#C[S-]: 0.703 ± 0.047.
On to `C1CCOC1` [tetrahydrofuran] + CCCCCC[n+]1ccc2ccccc2c1.N#C[S-], for which the activity coefficient turned out to be 1.46 ± 0.1.
As to `c1ccsc1` [thiophene] + CCCCCC[n+]1ccc2ccccc2c1.N#C[S-], the activity coefficient stood at 0.921 ± 0.058.
Same read-out and setting: next, `Cc1ccccc1` [toluene] + CCCCCC[n+]1ccc2ccccc2c1.N#C[S-]: 2.05 ± 0.14; `O` [water] + CCCCCC[n+]1ccc2ccccc2c1.N#C[S-]: 0.401 ± 0.034.

The same data set, now with this note: 338.15 K; 101 kPa; Liquid; Chromatography; x1 = 0.
As to `C1CCCCCCC1` [cyclooctane] + CCCCCC[n+]1ccc2ccccc2c1.N#C[S-], the activity coefficient is 15.4 ± 1.1.
On the same count and under the same terms, next, `C1CCCC1` [cyclopentane] + CCCCCC[n+]1ccc2ccccc2c1.N#C[S-]: 11.5 ± 0.8; `CCCCCCCCCC` [decane] + CCCCCC[n+]1ccc2ccccc2c1.N#C[S-]: 84.1 ± 5.8.
For the compound `CCOCC` [diethyl ether] + CCCCCC[n+]1ccc2ccccc2c1.N#C[S-], the activity coefficient turned out to be 6.34 ± 0.43.
The same measure, in the same setting: to `CC(C)OC(C)C` [diisopropyl ether] + CCCCCC[n+]1ccc2ccccc2c1.N#C[S-] belongs 17.6 ± 1.2; to `CCCOCCC` [dipropyl ether] + CCCCCC[n+]1ccc2ccccc2c1.N#C[S-], 13.2 ± 0.9; to `CCO` [ethanol] + CCCCCC[n+]1ccc2ccccc2c1.N#C[S-], 0.59 ± 0.042.
Same read-out and setting: to `CCc1ccccc1` [ethylbenzene] + CCCCCC[n+]1ccc2ccccc2c1.N#C[S-] belongs 3.07 ± 0.21; to `CCCCCCC` [heptane] + CCCCCC[n+]1ccc2ccccc2c1.N#C[S-], 38 ± 2.6; to `C=CCCCC` [hex-1-ene] + CCCCCC[n+]1ccc2ccccc2c1.N#C[S-], 15.4 ± 1.1.
On the same count and under the same terms, next, `CCCCCC` [hexane] + CCCCCC[n+]1ccc2ccccc2c1.N#C[S-]: 31.6 ± 2.2.
As to `CO` [methanol] + CCCCCC[n+]1ccc2ccccc2c1.N#C[S-], the activity coefficient is 0.378 ± 0.033.
Same read-out and setting: next, `CC1CCCCC1` [methylcyclohexane] + CCCCCC[n+]1ccc2ccccc2c1.N#C[S-]: 17.7 ± 1.2; `CCCCCCCCC` [nonane] + CCCCCC[n+]1ccc2ccccc2c1.N#C[S-]: 62.5 ± 4.3.
In the case of `C=CCCCCCC` [oct-1-ene] + CCCCCC[n+]1ccc2ccccc2c1.N#C[S-], the activity coefficient was determined as 25.6 ± 1.8.
With `CCCCCCCC` [octane] + CCCCCC[n+]1ccc2ccccc2c1.N#C[S-], the activity coefficient was 48.3 ± 3.3.
The same measure, in the same setting: to `CCCC(C)=O` [pentan-2-one] + CCCCCC[n+]1ccc2ccccc2c1.N#C[S-] belongs 2.11 ± 0.14; to `CCC(=O)CC` [pentan-3-one] + CCCCCC[n+]1ccc2ccccc2c1.N#C[S-], 2.11 ± 0.14; to `CCCO` [propan-1-ol] + CCCCCC[n+]1ccc2ccccc2c1.N#C[S-], 0.681 ± 0.046.
On the same count and under the same terms, to `c1ccncc1` [pyridine] + CCCCCC[n+]1ccc2ccccc2c1.N#C[S-] belongs 0.713 ± 0.048; to `C1CCOC1` [tetrahydrofuran] + CCCCCC[n+]1ccc2ccccc2c1.N#C[S-], 1.47 ± 0.1; to `c1ccsc1` [thiophene] + CCCCCC[n+]1ccc2ccccc2c1.N#C[S-], 0.943 ± 0.059.
Same read-out and setting: to `Cc1ccccc1` [toluene] + CCCCCC[n+]1ccc2ccccc2c1.N#C[S-] belongs 2.07 ± 0.14.
